Values of other authors in patent publication US20070053983A1 (priority 2005, published 2007).

Tested on: β-adrenergic receptors
Details: man; reduced heart rate, cardiac output and exercise systolic pressure; inhibition of isoproterenol-induced and reflex orthostatic tachycardia

COCCc1ccc(OCC(O)CNC(C)C)cc1 (stereo not shown) [Metoprolol]
β-blocking activity: confirmed the β-blocking activity
